Patent US20260250290A1 (BRISTOL-MYERS SQUIBB COMPANY, priority 2023, published 2026)
Where a name gives a salt, the structure may show the parent alone.

Biological target: T1, full length SGK1 (Homo sapiens, UniProt O00141)
T1 construct: 125 μM full length SGK1 (Life Technologies Part #PR7358A); purchased Life Technologies PR7358A
T1 sequence (O00141 1-431): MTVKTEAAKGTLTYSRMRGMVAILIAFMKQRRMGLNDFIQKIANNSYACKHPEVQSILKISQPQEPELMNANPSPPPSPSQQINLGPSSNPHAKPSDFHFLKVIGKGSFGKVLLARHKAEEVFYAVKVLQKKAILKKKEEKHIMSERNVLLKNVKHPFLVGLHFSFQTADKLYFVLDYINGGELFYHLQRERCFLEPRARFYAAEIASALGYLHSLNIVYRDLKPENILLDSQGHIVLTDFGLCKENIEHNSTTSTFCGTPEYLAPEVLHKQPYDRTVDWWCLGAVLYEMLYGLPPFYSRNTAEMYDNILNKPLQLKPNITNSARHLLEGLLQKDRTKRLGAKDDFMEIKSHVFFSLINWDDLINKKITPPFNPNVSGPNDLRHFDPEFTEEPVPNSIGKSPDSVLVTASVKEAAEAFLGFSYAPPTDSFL
Test: SGK1 inhibition Assay A (Caliper LabChip electrophoretic separation of fluorescent peptide substrate and phosphorylated product)
Format: biochemical
Conditions: Assay A; 20 μM ATP, 40 min incubation; read-out: SGK1 IC50

Row | Structure (SMILES) | IC50
1 | Nc1ncnn2c(C3=CCN(C(=O)[C@H]4CCOC4)C3)cc(N3CCC[C@@H](NC(=O)c4ccc(Cl)s4)C3)c12 [Example 888, N-((R)-1-(4-amino-7-(1-((S)-tetrahydrofuran-3-carbonyl)-2,5-dihydro-1H-pyrrol-3-yl)pyrrolo[2,1-f][1,2,4]triazin-5-yl)piperidin-3-y1)-5-chlorothiophene-2-carboxamide] | 6 nM
2 | CC(C)N1CCC(c2cc(C(F)F)sc2C(=O)N[C@@H]2CCCN(c3cc(-c4ccc(C#N)nc4)n4ncnc(N)c34)C2)CC1 [Example 397, (R)-N-(1-(4-amino-7-(6-cyanopyridin-3-yl)pyrrolo[2,1-f][1,2,4]triazin-5-yl)piperidin-3-yl)-5-(difluoromethyl)-3-(1-isopropylpiperidin-4-yl)thiophene-2-carboxamide] | 134 nM
3 | CS(=O)(=O)c1ccc(-c2cc(N3CCC[C@@H](NC(=O)c4cncs4)C3)c3c(N)ncnn23)cc1 [Example 66, (R)-N-(1-(4-amino-7-(4-(methylsulfonyl)phenyl)pyrrolo[2,1-f][1,2,4]triazin-5-yl)piperidin-3-yl)thiazole-5-carboxamide] | 39 nM
4 | C=Cc1cccc(C(=O)N[C@@H]2CCCN(c3cc(-c4ccc(S(C)(=O)=O)cc4)n4ncnc(N)c34)C2)c1 [Example 80, (R)-N-(1-(4-amino-7-(4-(methylsulfonyl)phenyl)pyrrolo[2,1-f][1,2,4]triazin-5-yl)piperidin-3-yl)-3-vinylbenzamide] | 14 nM
5 | Cc1cc(C(=O)N[C@@H]2CCCN(c3cc(-c4ccc(S(C)(=O)=O)cc4)n4ncnc(N)c34)C2)cc(=O)[nH]1 [Example 40, (R)-N-(1-(4-amino-7-(4-(methylsulfonyl)phenyl)pyrrolo[2,1-f][1,2,4]triazin-5-yl)piperidin-3-yl)-6-methyl-2-oxo-1,2-d1Hydropyridine-4-carboxamide, TFA] | 115 nM
6 | CS(=O)(=O)c1ccc(-c2cc(N3CCCC(NC(=O)c4ccccc4)C3)c3c(N)ncnn23)cc1 (centres unmarked) [Example 4, N-(1-(4-amino-7-(4-(methylsulfonyl)phenyl)pyrrolo[2,1-f][1,2,4]triazin-5-yl)piperidin-3-yl)benzamide] | 33 nM
7 | CC(=O)N1CC=C(c2cc(N3CCC[C@@H](NC(=O)c4sc(C5CC5)cc4OC4CCN(C)CC4)C3)c3c(N)ncnn23)C1 [Example 376, (R)—N-(1-(7-(1-acetyl-2,5-dihydro-1H-pyrrol-3-yl)-4-aminopyrrolo[2,1-f][1,2,4]triazin-5-yl)piperidin-3-yl)-5-cyclopropyl-3-((1-methylpiperidin-4-yl)oxy)thiophene-2-carboxamide] | 7 nM
8 | CCc1cccc(C(=O)N[C@@H]2CCCN(c3cc(-c4ccc(S(C)(=O)=O)cc4)n4ncnc(N)c34)C2)c1 [Example 79, (R)-N-(1-(4-amino-7-(4-(methylsulfonyl)phenyl)pyrrolo[2,1-f][1,2,4]triazin-5-yl)piperidin-3-yl)-3-ethylbenzamide, TFA] | 26 nM
9 | Nc1ncnn2c(-c3cncnc3)cc(N3CCC[C@@H](NC(=O)c4sc5ccc(F)cc5c4OC4CCNCC4)C3)c12 [Example 688, (R)—N-(1-(4-amino-7-(pyrimidin-5-yl)pyrrolo[2,1-f][1,2,4]triazin-5-yl)piperidin-3-yl)-5-fluoro-3-(piperidin-4-yloxy)benzo[b]thiophene-2-carboxamide] | 161 nM
10 | CS(=O)(=O)c1ccc(-c2cc(N3CCC[C@@H](NC(=O)c4cnn(C(F)F)c4)C3)c3c(N)ncnn23)cc1 [Example 75, (R)-N-(1-(4-amino-7-(4-(methylsulfonyl)phenyl)pyrrolo[2,1-f][1,2,4]triazin-5-yl)piperidin-3-yl)-1-(difluoromethyl)-1H-pyrazole-4-carboxamide, TFA] | 44 nM
11 | Nc1ncnn2c(C3=CCN(C(=O)[C@@H]4CCCNC4)C3)cc(N3CCC[C@@H](NC(=O)c4ccc(Cl)s4)C3)c12 [Example 901, N-((R)-1-(4-amino-7-(1-((R)-piperidine-3-carbonyl)-2,5-dihydro-1H-pyrrol-3-y1)pyrrolo[2,1-f][1,2,4]triazin-5-y1)piperidin-3-y1)-5-chlorothiophene-2-carboxamide] | 29 nM
12 | CC(=O)N1CC=C(c2cc(N3CCC[C@@H](NC(=O)c4cc5cnccc5[nH]4)C3)c3c(N)ncnn23)C1 [Example 490, (R)-N-(1-(7-(1-acetyl-2,5-dihydro-1H-pyrrol-3-yl)-4-aminopyrrolo[2,1-f][1,2,4]triazin-5-yl)piperidin-3-yl)-1H-pyrrolo[3,2-c]pyridine-2-carboxamide] | 24 nM
13 | CC(=O)N1CC=C(c2cc(N3CCC[C@@H](NC(=O)c4sc(C)nc4OC4CCN(C)CC4)C3)c3c(N)ncnn23)C1 [Example 357, (R)—N-(1-(7-(1-acetyl-2,5-dihydro-1H-pyrrol-3-yl)-4-aminopyrrolo[2,1-f][1,2,4]triazin-5-yl)piperidin-3-yl)-2-methyl-4-((1-methylpiperidin-4-yl)oxy)thiazole-5-carboxamide] | 24 nM
14 | CC(=O)N1CC=C(c2cc(N3CCC[C@@H](NC(=O)c4cc(C)on4)C3)c3c(N)ncnn23)C1 [Example 455, (R)-N-(1-(7-(1-acetyl-2,5-dihydro-1H-pyrrol-3-yl)-4-aminopyrrolo[2,1-f][1,2,4]triazin-5-yl)piperidin-3-yl)-5-methylisoxazole-3-] | 246 nM
15 | Nc1ncnn2c(-c3cnc4ncnn4c3)cc(N3CCC[C@@H](NC(=O)c4ccc(Cl)s4)C3)c12 [Example 246] | 13 nM
16 | CC(=O)N1CC=C(c2cc(N3CCC[C@@H](NC(=O)c4cccc(N5CC(C)(O)C5)n4)C3)c3c(N)ncnn23)C1 [Example 771, (R)-N-(1-(7-(1-acetyl-2,5-dihydro-1H-pyrrol-3-yl)-4-aminopyrrolo[2,1-f][1,2,4]triazin-5-yl)piperidin-3-yl)-6-(3-hydroxy-3-methylazetidin-1-yl)picolinamide] | 17 nM
17 | CS(=O)(=O)c1ccc(-c2cc(N3CCC[C@@H](NC(=O)c4cnc[nH]4)C3)c3c(N)ncnn23)cc1 [Example 37, (R)-N-(1-(4-amino-7-(4-(methylsulfonyl)phenyl)pyrrolo[2,1-f][1,2,4]triazin-5-yl)piperidin-3-yl)-1H-imidazole-5-carboxamide, TFA] | 136 nM
18 | COC(=O)N1CC=C(c2cc(N3CCC[C@@H](NC(=O)c4sc(Cl)cc4OC4CCN(CC(C)(C)O)CC4)C3)c3c(N)ncnn23)C1 [Example 619, Methyl (R)-3-(4-amino-5-(3-(5-chloro-3-((1-(2-hydroxy-2-methylpropyl)piperidin-4-yl)oxy)thiophene-2-carboxamido)piperidin-1-yl)pyrrolo[2,1-f][1,2,4]triazin-7-yl)-2,5-dihydro-1H-pyrrole-1-carboxylate] | 11 nM

Now from value to compound:

Row | IC50 | Structure (SMILES)
19 | 36 nM | CN(C)CCOc1cc(Cl)sc1C(=O)N[C@@H]1CCCN(c2cc(C3=CCN(C(=O)C4CC(F)(F)C4)CC3)n3ncnc(N)c23)C1 [Example 184, (R)-N-(1-(4-amino-7-(1-(3,3-difluorocyclobutane-1-carbonyl)-1,2,3,6-tetrahydropyridin-4-yl)pyrrolo[2,1-f][1,2,4]triazin-5-yl)piperidin-3-yl)-5-chloro-3-(2-(dimethylamino)ethoxy) thiophene-2-carboxamide, 2 TFA]
20 | 2 nM | CN(C)CCOc1cc(Cl)sc1C(=O)N[C@@H]1CCCN(c2cc(-c3ccc(C(N)=O)c(F)c3)n3ncnc(N)c23)C1 [Example 164, (R)-N-(1-(4-amino-7-(4-carbamoyl-3-fluorophenyl)pyrrolo [2,1-f][1,2,4]triazin-5-yl)piperidin-3-yl)-5-chloro-3-(2-(dimethylamino)ethoxy)thiophene-2-carboxamide, 2 TFA]
21 | 26 nM | NC(=O)c1ncc(-c2cc(N3CCC[C@@H](NC(=O)c4ccc(C(F)F)s4)C3)c3c(N)ncnn23)cc1C(F)(F)F [Example 525]
22 | 120 nM | Nc1ncnn2c(-c3cncnc3)cc(N3CCC[C@@H](NC(=O)c4sc(Cl)cc4OCC(=O)N4CCCC4)C3)c12 [Example 419, (R)-N-(1-(4-amino-7-(pyrimidin-5-yl)pyrrolo[2,1-f][1,2,4]triazin-5-yl)piperidin-3-yl)-5-chloro-3-(2-oxo-2-(pyrrolidin-1-yl)ethoxy) thiophene-2-carboxamide]
23 | 886 nM | CN(C)CCn1c(C(=O)N[C@@H]2CCCN(c3cc(-c4ccc(C#N)nc4)n4ncnc(N)c34)C2)cc2ccccc21 [Example 506, (R)-N-(1-(4-amino-7-(6-cyanopyridin-3-yl)pyrrolo[2,1-f][1,2,4]triazin-5-yl)piperidin-3-yl)-1-(2-(dimethylamino)ethyl)-1H-indole-2-carboxamide]
24 | 5 nM | CC(=O)c1ccc(-c2cc(N3CCC[C@@H](NC(=O)c4ccc(Cl)s4)C3)c3c(N)ncnn23)cc1 [Example 204, (R)-N-(1-(7-(4-acetylphenyl)-4-aminopyrrolo[2,1-f][1,2,4]triazin-5-yl)piperidin-3-yl)-5-chlorothiophene-2-carboxamide, TFA]
25 | 46 nM | Nc1ncnn2c(-c3cccc(OC(F)F)c3)cc(N3CCC[C@@H](NC(=O)c4ccc(Cl)s4)C3)c12 [Example 229]
26 | 17 nM | CN(C)CCOc1cc(C(F)F)sc1C(=O)N[C@@H]1CCCN(c2cc(-c3ccc(=O)n(CC(F)F)c3)n3ncnc(N)c23)C1 [Example 309, (R)-N-(1-(4-amino-7-(1-(2,2-difluoroethyl)-6-oxo-1,6-dihydropyridin-3-yl)pyrrolo[2,1-f][1,2,4]triazin-5-yl)piperidin-3-yl)-5-(difluoromethyl)-3-(2-(dimethylamino)ethoxy)thiophene-2-carboxamide]
